Assay results taken from patent publication US20080152640A1, “Means and Methods For Treating a Disease Which is Associated With an Excess Transport of Hyaluronan Across a Lipid Bilayer” (priority 2003, published 2008).
pIC50, pKi: −log10 of the molar value. Like-named read-outs stand apart in the source and are kept apart here.

Experiments:
hyaluronan synthase = conditions: for hyaluronan transport / synthase activity in membranes: membranes from human fibroblasts; for pIC50: read-out: HA synthase activity (IC50), membranes of human fibroblasts
human skin fibroblasts = assay: Proliferation of human skin fibroblasts (cell counting); format: cell-based; conditions: for pIC50: read-out: Proliferation (IC50)
Description: Human fibroblasts were grown in […] in Dulbecco's modified Eagles medium supplemented with streptomycin/penicillin (100 units of each/ml), kanamycin (100 units/ml) and 10% foetal calf serum. Cell proliferation was determined by cell counting after trypsinisation three days after seeding.

human fibroblasts [1] = assay: Hyaluronan production of human fibroblasts (ELISA of culture medium); format: cell-based; conditions: for pIC50: read-out: HA production (IC50); for hyaluronan in culture medium: human skin fibroblasts / fibroblast cell line, increasing concentrations, 3 days
membranes from HT29 = assay: Hyaluronan transport activity in isolated membranes from HT29; format: biochemical, human
[2] = test system: human synovial fibroblasts; assay: Growth of human synovial fibroblasts; format: cell-based
[3] = test system: osteoarthritic cartilage in rat knee joints; assay: Iodoacetate rat model of osteoarthritis, proteoglycan loss in knee cartilage; format: in vivo
Description: Osteoarthritic damage was induced in the left knees iodoacetate into the synovial cavity. The right knees remained untreated and served as controls. Three rates were feed with normal drinking water and three with drinking water containing Verapamil. After 17 days the rats were sacrificed and the articular cartilage was analysed histologically. Acid polysaccharides were stained with alcian blue and the preparation was counterstained with nuclear fast red.
The animal trials were performed in accordance with the guidelines of the local ethical committee. Osteoarthritic damage was induced in the left knees of 6 Wistar rats by injection of a solution of 50 μl of 10 mM iodoacetate into the synovial cavity. […] After 17 days the rats were sacrificed and the articular cartilage was analysed histologically. […]
Male Wistar rats (Charles River, Sulzfeld, Germany) having a body weight of 150 g were fed on ordinary laboratory diet and were housed in cages with a floor area of 800 cm^2. […] After 21 days, the rats were sacrificed and the articular cartilage was analysed by histology. […] Digital photos were taken and the blue colour of the proteoglycans was quantitatively evaluated by the free Scion Image Software. To eliminate staining artefacts, the staining of proteoglycans on the joint surface was related to the staining density at the […] and expressed as percent. […]

HT29 = assay: Hyaluronan production of colon carcinoma cell line HT29 (versus HT29-mdr); conditions: increasing concentrations
Description: Cells were seeded in 24 multiwell dished with a diameter of 2 cm^2 at a density of 2×10^4 cells/cm^2 in Dulbecco's media containing 10% foetal bovine serum and increasing concentrations of inhibitors. After incubation for 3 days at 37° C. the cells were trypsinized and counted. The concentration of hyaluronan was determined in the culture medium by an ELISA assay [87].

hyaluronan transport = assay: Inhibition of hyaluronan transport (export) from human fibroblasts, discussion of Example 9; conditions: for pIC50: Homo sapiens, Fibroblast, read-out: IC50 for hyaluronan transport (export); for inhibition of hyaluronan transport (words): human fibroblasts
Description: Cells from five culture flasks (180 cm2 growth area) were washed with cold phosphate buffered saline (PBS), harvested with the aid of a rubber policeman, sedimented at 1500 g for 5 min and suspended in 30 ml of ice-cold PBS. The cells were transferred into a Parr-cell disruption bomb, exposed to a nitrogen pressure of 900 psi for 15 min and disrupted by nitrogen cavitation [18] and the particulate fraction was obtained by centrifugation at 40000 g for 20 min. […] Hyaluronan synthesis was stopped by adding a solution of 10% sodium dodecylsuifate (SDS) to a final concentration of 1%. The mixtures were applied to descending paper chromatography that was developed with ethanol/aq. 1 M ammonium acetate pH 5.5 (13:7) as solvent. After 18 h the radioactivity of [14C]hyaluronan at the origin was determined.
Trypsinised fibroblasts were suspended in Dulbecco's medium at 10^5 cells/ml and 100 μl aliquots were transferred to a 96 well microtiter plate. The first row received 200 μl of the suspension and 20 μl of the multidrug resistance inhibitors dissolved in DMSO at concentrations of 4 mM. A serial dilution to the inhibitors was established by transfer of 100 μl aliquots from the first row to the following rows. All experiments were performed in duplicates. […] The cells were incubated for 2 days at 37° C. and aliquots (5 and 20 μl) of the culture medium were used for measurement of the hyaluronan concentration in the cell culture medium by an ELISA [19]. […] The mixtures were transferred to the hyaluronan-coated test plate and incubated for 1 hour at 37° C. The microtiter plate was washed three times with buffer A and incubated with 100 μl/well of a solution of streptavidin-horseraddish-peroxidase (Amersham) at a dilution of 1:100 in phosphate buffered saline, 0.1% Tween-20 for 30 min at room temperature. The plate was washed five times with buffer A and the colour was developed by incubation with a 100 μl/well of a solution of 5 mg o-phenylenediamine and 5 μl 30% H2O2 in 10 ml of 0.1 M citrate-phosphate buffer pH 5.3 for 25 min at room temperature. The adsorption was read at 490 nm. The concentrations in the samples were calculated from a logarithmic regression curve of the hyaluronan standard solutions.
Three parameters were measured: 1. The amount of hyaluronan produced during growth into the culture supernatant. 2. The hyaluronan synthase activity in particulate membrane fractions to eliminate the possibility that inhibition of hyaluronan production in cell culture could be caused indirectly by cellular mediators. 3. The effect on cell proliferation, because hyaluronan synthesis is also required for detachment during mitosis and growth of the human HT1080 cell line [14].

[4] = test system: human synovial fibroblasts; assay: Hyaluronan production of human synovial fibroblasts; format: cell-based
MRP3 = MRP3 (Homo sapiens, UniProt O15438); conditions: cited from earlier work
MRP4 = target: T1, MRP4 (Homo sapiens, UniProt O15439); conditions: cited from earlier work
T1 sequence (O15439 1-1325): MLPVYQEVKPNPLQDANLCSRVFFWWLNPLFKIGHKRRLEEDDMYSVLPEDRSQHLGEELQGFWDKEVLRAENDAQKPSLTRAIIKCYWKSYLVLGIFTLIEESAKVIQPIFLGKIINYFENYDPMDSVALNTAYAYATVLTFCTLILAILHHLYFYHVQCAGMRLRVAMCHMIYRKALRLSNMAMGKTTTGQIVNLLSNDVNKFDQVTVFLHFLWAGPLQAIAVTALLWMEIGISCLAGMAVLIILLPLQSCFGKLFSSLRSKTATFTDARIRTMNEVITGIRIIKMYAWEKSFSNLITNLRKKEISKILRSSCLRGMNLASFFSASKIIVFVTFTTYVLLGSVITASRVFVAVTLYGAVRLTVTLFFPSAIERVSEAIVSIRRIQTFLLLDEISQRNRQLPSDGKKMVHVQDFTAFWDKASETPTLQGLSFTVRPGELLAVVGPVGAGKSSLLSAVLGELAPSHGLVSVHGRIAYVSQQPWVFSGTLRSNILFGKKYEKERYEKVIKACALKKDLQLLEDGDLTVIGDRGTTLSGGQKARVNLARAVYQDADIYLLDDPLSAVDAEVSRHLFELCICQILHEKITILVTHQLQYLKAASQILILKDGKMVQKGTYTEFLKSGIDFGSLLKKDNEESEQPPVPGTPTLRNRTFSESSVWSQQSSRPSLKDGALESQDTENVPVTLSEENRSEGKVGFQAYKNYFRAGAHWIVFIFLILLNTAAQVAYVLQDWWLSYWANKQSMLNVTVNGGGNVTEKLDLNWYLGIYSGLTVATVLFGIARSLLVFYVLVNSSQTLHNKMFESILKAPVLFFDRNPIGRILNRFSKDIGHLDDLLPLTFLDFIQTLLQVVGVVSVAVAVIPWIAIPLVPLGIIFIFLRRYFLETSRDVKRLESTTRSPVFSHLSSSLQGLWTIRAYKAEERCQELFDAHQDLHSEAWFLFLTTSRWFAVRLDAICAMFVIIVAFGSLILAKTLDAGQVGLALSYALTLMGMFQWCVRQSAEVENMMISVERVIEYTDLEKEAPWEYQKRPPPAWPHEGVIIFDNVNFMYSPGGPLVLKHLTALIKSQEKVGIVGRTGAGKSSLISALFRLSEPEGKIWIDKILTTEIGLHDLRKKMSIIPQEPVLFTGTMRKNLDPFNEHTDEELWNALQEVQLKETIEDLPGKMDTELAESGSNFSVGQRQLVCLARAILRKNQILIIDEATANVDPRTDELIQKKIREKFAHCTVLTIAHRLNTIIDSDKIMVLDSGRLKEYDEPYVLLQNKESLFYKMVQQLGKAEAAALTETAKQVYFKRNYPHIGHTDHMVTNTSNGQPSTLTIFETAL

MRP5 = MRP5 (Homo sapiens, UniProt O15440); conditions: cited from earlier work
MRP5, sequence (O15440 whole entry): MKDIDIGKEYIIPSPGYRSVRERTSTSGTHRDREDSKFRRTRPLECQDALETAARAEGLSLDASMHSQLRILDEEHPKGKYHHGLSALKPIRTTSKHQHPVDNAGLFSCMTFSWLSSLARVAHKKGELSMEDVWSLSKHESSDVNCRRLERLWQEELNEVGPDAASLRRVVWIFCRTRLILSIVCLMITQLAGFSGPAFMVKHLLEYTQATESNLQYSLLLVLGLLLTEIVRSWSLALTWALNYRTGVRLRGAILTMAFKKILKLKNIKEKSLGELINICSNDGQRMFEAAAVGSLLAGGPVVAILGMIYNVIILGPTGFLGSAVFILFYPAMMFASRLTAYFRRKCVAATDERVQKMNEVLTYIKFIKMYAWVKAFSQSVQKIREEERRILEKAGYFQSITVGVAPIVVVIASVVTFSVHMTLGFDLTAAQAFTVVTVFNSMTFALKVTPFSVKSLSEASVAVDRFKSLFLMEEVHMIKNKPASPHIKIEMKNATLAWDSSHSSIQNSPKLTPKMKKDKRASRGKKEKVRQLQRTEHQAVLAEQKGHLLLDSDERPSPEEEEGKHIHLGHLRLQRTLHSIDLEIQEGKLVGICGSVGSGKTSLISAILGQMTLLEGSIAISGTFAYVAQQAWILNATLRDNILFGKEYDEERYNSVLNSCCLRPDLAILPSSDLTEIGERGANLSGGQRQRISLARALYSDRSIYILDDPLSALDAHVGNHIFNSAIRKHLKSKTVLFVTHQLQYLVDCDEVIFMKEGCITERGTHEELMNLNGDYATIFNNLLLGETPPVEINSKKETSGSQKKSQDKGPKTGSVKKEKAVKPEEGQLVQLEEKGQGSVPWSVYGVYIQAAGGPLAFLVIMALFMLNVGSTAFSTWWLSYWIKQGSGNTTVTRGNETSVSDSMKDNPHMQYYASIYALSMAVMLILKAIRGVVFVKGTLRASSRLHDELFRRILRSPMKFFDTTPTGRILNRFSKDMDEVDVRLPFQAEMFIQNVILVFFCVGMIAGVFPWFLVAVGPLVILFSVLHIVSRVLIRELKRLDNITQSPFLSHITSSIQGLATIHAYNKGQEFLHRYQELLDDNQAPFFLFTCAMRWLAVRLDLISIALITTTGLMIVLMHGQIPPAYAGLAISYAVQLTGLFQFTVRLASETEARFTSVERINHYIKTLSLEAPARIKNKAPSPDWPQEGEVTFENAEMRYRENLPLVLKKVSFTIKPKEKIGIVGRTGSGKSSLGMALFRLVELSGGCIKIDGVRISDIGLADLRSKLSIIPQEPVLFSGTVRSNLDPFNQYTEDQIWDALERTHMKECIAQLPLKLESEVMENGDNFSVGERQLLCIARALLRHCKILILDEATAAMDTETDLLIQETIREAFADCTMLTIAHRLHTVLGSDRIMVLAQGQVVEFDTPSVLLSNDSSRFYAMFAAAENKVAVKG

MRP2 = MRP2 (Homo sapiens, UniProt Q92887); conditions: cited from earlier work
chloride channel = conditions: cited from earlier work
MRP1 = MRP1 (Homo sapiens, UniProt P33527); conditions: cited from earlier work
MRP1, sequence (P33527 whole entry): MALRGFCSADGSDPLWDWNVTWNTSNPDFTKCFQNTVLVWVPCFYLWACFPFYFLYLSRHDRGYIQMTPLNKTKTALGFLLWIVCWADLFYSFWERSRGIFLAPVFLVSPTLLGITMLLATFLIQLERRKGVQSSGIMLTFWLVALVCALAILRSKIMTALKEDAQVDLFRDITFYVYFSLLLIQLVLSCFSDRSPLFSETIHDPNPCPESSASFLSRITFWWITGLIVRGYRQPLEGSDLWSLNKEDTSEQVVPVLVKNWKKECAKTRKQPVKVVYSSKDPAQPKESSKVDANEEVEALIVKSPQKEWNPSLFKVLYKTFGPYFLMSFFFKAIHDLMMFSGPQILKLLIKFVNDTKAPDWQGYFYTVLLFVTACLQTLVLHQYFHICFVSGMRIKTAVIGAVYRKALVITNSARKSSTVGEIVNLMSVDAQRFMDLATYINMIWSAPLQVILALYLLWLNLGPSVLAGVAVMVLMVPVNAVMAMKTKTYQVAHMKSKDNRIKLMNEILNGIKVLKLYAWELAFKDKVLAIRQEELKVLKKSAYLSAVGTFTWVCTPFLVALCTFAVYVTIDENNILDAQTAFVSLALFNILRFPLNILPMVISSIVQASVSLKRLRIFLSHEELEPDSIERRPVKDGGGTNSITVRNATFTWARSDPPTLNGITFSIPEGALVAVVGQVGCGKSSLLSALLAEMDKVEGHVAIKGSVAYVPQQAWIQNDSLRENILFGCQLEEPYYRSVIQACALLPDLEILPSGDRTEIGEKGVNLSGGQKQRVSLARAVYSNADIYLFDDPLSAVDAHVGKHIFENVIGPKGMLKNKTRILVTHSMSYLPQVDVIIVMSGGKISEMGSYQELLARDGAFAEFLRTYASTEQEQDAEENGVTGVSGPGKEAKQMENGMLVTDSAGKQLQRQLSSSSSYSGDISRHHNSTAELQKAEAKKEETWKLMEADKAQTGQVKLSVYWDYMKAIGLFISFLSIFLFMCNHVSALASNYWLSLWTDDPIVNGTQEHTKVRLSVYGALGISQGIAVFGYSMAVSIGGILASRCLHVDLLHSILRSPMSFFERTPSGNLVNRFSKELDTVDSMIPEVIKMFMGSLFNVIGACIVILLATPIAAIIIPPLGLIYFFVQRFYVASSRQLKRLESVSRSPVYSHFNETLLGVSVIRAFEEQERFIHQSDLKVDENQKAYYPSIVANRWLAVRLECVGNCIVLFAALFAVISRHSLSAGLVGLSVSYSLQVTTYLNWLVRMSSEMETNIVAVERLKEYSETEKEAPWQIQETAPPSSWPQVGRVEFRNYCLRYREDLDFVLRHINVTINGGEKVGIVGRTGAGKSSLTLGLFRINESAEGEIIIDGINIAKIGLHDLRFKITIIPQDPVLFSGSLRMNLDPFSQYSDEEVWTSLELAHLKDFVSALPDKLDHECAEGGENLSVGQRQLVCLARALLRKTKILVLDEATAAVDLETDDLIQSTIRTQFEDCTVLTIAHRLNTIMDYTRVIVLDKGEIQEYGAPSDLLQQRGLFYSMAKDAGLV

MRP transporters = test system: T2, MRP transporters; conditions: human erythrocytes; cited from earlier work
T2 construct: other: human erythrocytes

ABCA = conditions: ABCA1; read-out: IC50, secretion of macrophage inhibitory factor (ABCA1); cited from earlier work
MDR1 = MDR1 (Homo sapiens, UniProt P08183); conditions: cited from earlier work
MDR1, sequence (P08183 whole entry): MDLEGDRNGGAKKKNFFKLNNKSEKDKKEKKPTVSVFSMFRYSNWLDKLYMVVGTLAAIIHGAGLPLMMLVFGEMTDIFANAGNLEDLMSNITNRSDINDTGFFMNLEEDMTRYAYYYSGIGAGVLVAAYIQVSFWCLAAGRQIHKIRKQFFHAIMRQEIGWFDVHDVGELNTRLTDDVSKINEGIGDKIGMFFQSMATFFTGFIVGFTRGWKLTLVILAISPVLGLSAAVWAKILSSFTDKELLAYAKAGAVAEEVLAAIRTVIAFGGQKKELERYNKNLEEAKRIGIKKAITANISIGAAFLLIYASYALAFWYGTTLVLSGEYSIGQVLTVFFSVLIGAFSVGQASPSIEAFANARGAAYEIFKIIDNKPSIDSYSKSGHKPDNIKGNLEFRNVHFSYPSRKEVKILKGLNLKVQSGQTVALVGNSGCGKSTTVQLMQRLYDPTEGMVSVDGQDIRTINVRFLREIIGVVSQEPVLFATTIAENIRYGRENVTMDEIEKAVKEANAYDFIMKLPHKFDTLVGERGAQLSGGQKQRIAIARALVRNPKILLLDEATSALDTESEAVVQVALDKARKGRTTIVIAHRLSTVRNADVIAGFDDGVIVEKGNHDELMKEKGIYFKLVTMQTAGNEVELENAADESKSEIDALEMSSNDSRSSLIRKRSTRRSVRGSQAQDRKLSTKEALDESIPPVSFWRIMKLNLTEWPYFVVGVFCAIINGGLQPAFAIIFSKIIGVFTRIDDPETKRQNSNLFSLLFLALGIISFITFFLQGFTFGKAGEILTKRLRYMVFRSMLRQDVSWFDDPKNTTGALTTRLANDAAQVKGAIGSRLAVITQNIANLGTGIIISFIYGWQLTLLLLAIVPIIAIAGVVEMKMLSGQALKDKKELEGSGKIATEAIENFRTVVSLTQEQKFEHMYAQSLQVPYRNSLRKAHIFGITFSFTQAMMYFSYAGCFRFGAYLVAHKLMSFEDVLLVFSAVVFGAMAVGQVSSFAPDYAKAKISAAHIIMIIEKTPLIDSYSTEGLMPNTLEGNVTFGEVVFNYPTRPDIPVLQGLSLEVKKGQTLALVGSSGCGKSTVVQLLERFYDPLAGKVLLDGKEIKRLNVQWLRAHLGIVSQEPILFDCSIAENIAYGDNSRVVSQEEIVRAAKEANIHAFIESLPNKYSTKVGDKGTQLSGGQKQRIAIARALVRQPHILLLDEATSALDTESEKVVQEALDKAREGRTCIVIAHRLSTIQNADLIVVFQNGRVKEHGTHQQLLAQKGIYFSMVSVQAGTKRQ

human fibroblasts [5] = assay: Export of fluorescent hyaluronan oligosaccharides from the cytosol of human fibroblasts; format: cell-based
Description: The media were withdrawn and the cells were incubated at 37° C. with DMEM/water (3:2, v/v) for 2 min. The cells were subjected twice to this incubation sequence and then grown further in DMEM. […] Fluorescent high molecular weight hyaluronan and fluorescent oligosaccharides were introduced into the cytosol by osmotic lysis of pinocytotic vesicles. The kinetics of export was measured in a fluorescent ELISA reader in the presence and absence of the hyaluronan transport inhibitor benzbromaron.

[6] = Fibroblast, human fibroblasts, culture medium

With `COc1ccc(CCN(C)CCCC(C#N)(c2ccc(OC)c(OC)c2)C(C)C)cc1OC` (stereo not drawn) [Verapamil] the “hyaluronan transport / synthase activity in membranes” value (hyaluronan synthase) was “blocked the hyaluronan transport in a concentration dependent manner”, the pIC50 (hyaluronan synthase) was about 4.30 and the pIC50 (human skin fibroblasts; Homo sapiens, Skin fibroblast) was 4.70. For the same compound, the “cell growth” value (human skin fibroblasts; human skin fibroblasts, increasing concentrations, 3 days) was “reduced”, the pIC50 (human fibroblasts [1]; Homo sapiens, Fibroblast) was 4.82 and the “hyaluronan in culture medium” value (human fibroblasts [1]) was “reduced”. The “hyaluronan transport activity in membranes, sensitive cell line HT29” value (membranes from HT29) was “inhibition is not complete”, the “growth of human synovial fibroblasts” value [2] was “inhibited growth” and the “protection from proteoglycan loss” value ([3]; administered at the day of injury or three days later, analysed after 21 days) was “completely protected from proteoglycan loss”. The “protection from proteoglycan loss” value ([3]; treatment started later than three days, up to 21 days after injury) was “partially prevent proteoglycan loss”, the “hyaluronan transport in HT29 compared with HT29-mdr” value (HT29) was “more efficiently blocked hyaluronan transport in HT29 than in HT29-mdr” and the pIC50 (hyaluronan transport) was about 4.30. For the same compound, the “inhibition of hyaluronan transport (words)” value (from here on “inhibition … (words)”) (hyaluronan transport) was “inhibited also hyaluronan synthesis” and the “hyaluronan production of human synovial fibroblasts” value [4] was “inhibited”.
For `CCCCCCCCCCSC[C@H](NC(=O)CC[C@H](N)C(=O)O)C(=O)NCC(=O)O` [S-decylglutathione], the “published inhibitory concentrations IC50 or Ki, MRP3” value (MRP3) is listed as “low”, the pIC50 (hyaluronan synthase) is listed as 4.40 and the “published inhibitory concentrations IC50 or Ki, MRP4” value (MRP4) is listed as “good”. For the same compound, the pIC50 (human fibroblasts [1]; [6]) was 5.15, the “published inhibitory concentrations IC50 or Ki, MRP5” value (MRP5) was “good” and the “published inhibitory concentrations IC50 or Ki, MRP2” value (MRP2) was “good”. The “inhibition … (words)” value (hyaluronan transport) was “very good inhibitor”.
In the case of `O=S(=O)(O)c1cc(N=C=S)ccc1C=Cc1ccc(N=C=S)cc1S(=O)(=O)O` [DIDS, 4,4-diisothiocyanatostilbene-2,2-disulfonic acid], the “decrease of hyaluronan transport activity” value (hyaluronan synthase; membranes from human fibroblast cell line) is given as 70%, the pIC50 (hyaluronan synthase) is given as under 3.40 and the pKi (chloride channel) is given as 6.08. For the same compound, the pIC50 (MRP4) was 3.52 to 3.82, the pIC50 (MRP1) was 3.52 to 3.82 and the pIC50 (human skin fibroblasts; human fibroblasts) was 3.60. The pIC50 (human fibroblasts [1]; human fibroblasts, culture medium) was 4.30, the pIC50 (MRP transporters) was 3.52 to 3.82 and the “inhibition … (words)” value (hyaluronan transport) was “partially”.
In the case of `COc1ccc(Cl)cc1C(=O)NCCc1ccc(S(=O)(=O)NC(=O)NC2CCCCC2)cc1` [Glyburide], the pIC50 (ABCA) is given as about 5.30, the pIC50 (hyaluronan synthase) is given as 3.92 and the “concentration inhibiting MDR1 mediated export of colchicine” value (MDR1; substrate colchicine) is given as “about 100 μM”. For the same compound, the pIC50 (MRP4; read-out: IC50, MRP4 mediated transport of cGMP, substrate cGMP, human erythrocytes) was 5.72, the pIC50 (human skin fibroblasts; Homo sapiens, Skin fibroblast) was 5.15 and the pIC50 (human fibroblasts [1]; [6]) was about 3.40. The inhibition at 400 µM (human fibroblasts [1]; Homo sapiens, Fibroblast, even at 400 μM, read-out: inhibition of hyaluronan secretion) was at most 50% and the “hyaluronan in culture medium” value (human fibroblasts [1]) was “partially inhibited”.
In the case of `CCc1oc2ccccc2c1C(=O)c1cc(Br)c(O)c(Br)c1` [Benzbromarone], the “hyaluronan transport / synthase activity in membranes” value (hyaluronan synthase) is given as “almost completely inhibited”, the pIC50 (hyaluronan synthase) is given as 4.92 and the pIC50 (MDR1) is given as under 3.10. For the same compound, the pIC50 (MRP4; read-out: IC50, 9-(2-phosphonomethoxyethyl)adenine (PMEA) transport by MRP4, substrate PMEA) was 3.82, the pIC50 (MRP4; read-out: IC50 for MRP4) was 3.82 and the pIC50 (MRP4; read-out: published inhibitory concentrations IC50 or Ki, MRP4) was 3.82. The pIC50 (human skin fibroblasts; Homo sapiens, Skin fibroblast) was 4.12, the “export of fluorescent hyaluronan oligosaccharides from the cytosol” value (human fibroblasts [5]) was “inhibits the export” and the pIC50 (human fibroblasts [1]; Homo sapiens, Fibroblast) was 4.52. For the same compound, the pIC50 (MRP5; read-out: IC50 for MRP5) was 3.82, the pIC50 (MRP5; substrate PMEA, read-out: IC50, PMEA transport by MRP5) was 3.82 and the pIC50 (MRP5; substrate S-(2,4-dinitrophenyl)glutathione, read-out: IC50, MRP5 mediated transport of S-(2,4-dinitrophenyl)glutathione) was over 5.30. The pIC50 (hyaluronan transport) was 4.60, the “inhibition … (words)” value (hyaluronan transport) was “very effective inhibitor” and the “inhibition … (words)” value (hyaluronan transport; listed as benzbromarone) was “inhibited hyaluronan transport”.
In the case of `CN(Cc1cnc2nc(N)nc(N)c2n1)c1ccc(C(=O)N[C@@H](CCC(=O)O)C(=O)O)cc1` [methotrexate], the “published inhibitory concentrations IC50 or Ki, MRP3” value (MRP3) is given as “substrate”, the “hyaluronan transport / synthase activity in membranes” value (hyaluronan synthase) is given as “did not inhibit” and the pIC50 (hyaluronan synthase) is given as under 3.40. The “published inhibitory concentrations IC50 or Ki, MRP4” value (MRP4) was “substrate”, the “published inhibitory concentrations IC50 or Ki, MRP1” value (MRP1) was “substrate” and the pIC50 (human skin fibroblasts; Homo sapiens, Skin fibroblast) was about 3.70. The pIC50 (human fibroblasts [1]; [6]) was about 3.70, the “published inhibitory concentrations IC50 or Ki, MRP5” value (MRP5) was “no” and the “published inhibitory concentrations IC50 or Ki, MRP2” value (MRP2) was “substrate”. The “inhibition … (words)” value (hyaluronan transport) was “did not inhibit”.
